From PubChem BioAssay (NCI)
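Cultured in 96-well plates, cells were exposed to test compound for 48 hours across five concentrations. GI50: concentration for 50% inhibition of growth. At the TGI there is no net growth.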

What was measured:
Assay in all cases: NCI-60 cell line screen, 48 h
[1] = system: SK-OV-3 ovarian
[2] = system: SK-MEL-2 melanoma
[3] = system: SF-539 CNS
[4] = system: MDA-MB-231 breast
[5] = system: HCT-15 colon
[6] = system: SF-268 CNS
[7] = system: MCF7 breast
[8] = system: 786-0 renal
[9] = system: EKVX NSCLC
[10] = system: MALME-3M melanoma
[11] = system: SW-620 colon
[12] = system: SF-295 CNS
[13] = system: OVCAR-4 ovarian
[14] = system: BT-549 breast
[15] = system: RXF 393 renal
[16] = system: SR leukemia

Structure (SMILES)	TGI [1]	TGI [2]	TGI [3]	TGI [4]	TGI [5]	TGI [6]	TGI [7]	TGI [8]	TGI [9]	TGI [10]	TGI [11]	TGI [12]	TGI [13]	TGI [14]	TGI [15]	TGI [16]	GI50 [2]	GI50 [6]	GI50 [9]	GI50 [15]
CC1CC(C)[C@H](O)C([C@H](O)CC2CC(=O)N(C)C(=O)C2)C1 (some centres not stated)	> 100 µM	> 100 µM	> 100 µM	> 100 µM	> 100 µM	> 100 µM	> 100 µM	> 100 µM	> 100 µM	> 100 µM	> 100 µM	> 100 µM	> 100 µM	> 100 µM	> 100 µM					
Cc1c(/C=N/NC(=S)Nc2cccc(Cl)c2)c(=O)n(-c2ccccc2)n1C	38.2 µM	36.7 µM	33 µM	43.8 µM	> 100 µM	36.7 µM	62.5 µM	37 µM	33.3 µM		> 100 µM	28 µM	40 µM	75.1 µM	29.5 µM	> 100 µM				
O=c1[nH]c(=O)n(C2CC(O)C(CO)O2)cc1OCCc1ccccc1 (configuration not stated)	> 100 µM			> 100 µM	> 100 µM	> 100 µM	> 100 µM	> 100 µM	> 100 µM	> 100 µM		> 100 µM	> 100 µM	> 100 µM	> 100 µM	> 100 µM				
COc1cc(O)c2c(=O)c(OC)c(-c3ccc4c(c3)OCO4)oc2c1	81 µM	> 100 µM	> 74.9 µM	> 77.4 µM	> 100 µM	40 µM	> 100 µM	> 100 µM	> 100 µM	> 100 µM	> 100 µM	> 92.2 µM		> 30 µM	> 100 µM	> 100 µM				
C[C@@]12c3c4ccc(C=O)c3Oc3ccc(C=O)c(c31)Oc1c(C=O)ccc(c12)O4	> 100 µM	> 100 µM	> 100 µM	> 100 µM	> 100 µM	> 100 µM	> 100 µM	> 100 µM	> 100 µM	> 100 µM	> 100 µM	> 100 µM	> 100 µM	> 100 µM		> 100 µM				
FC(F)(F)c1nc2ccc(SSc3ccc4nc(C(F)(F)F)[nH]c4c3)cc2[nH]1		> 100 µM	> 100 µM	71.3 µM	> 100 µM	> 100 µM	> 100 µM	> 100 µM	> 100 µM		> 100 µM	> 100 µM	> 100 µM	> 100 µM	> 100 µM	> 100 µM	> 100 µM	> 100 µM	> 100 µM	> 100 µM
Oc1ccc(Cl)cc1-c1[nH]c(=S)nc(-c2ccccc2)c1Cl	> 100 µM	> 100 µM		97.2 µM	> 100 µM	> 100 µM	> 100 µM	> 100 µM		> 100 µM	> 100 µM	> 87.8 µM	> 100 µM	> 100 µM	> 100 µM	> 100 µM				
O=S(=O)(C(=Ic1ccccc1)S(=O)(=O)C(F)(F)C(F)(F)C(F)(F)C(F)(F)F)C(F)(F)C(F)(F)C(F)(F)C(F)(F)F	30.4 µM		28.8 µM	55.4 µM	33.7 µM	42.7 µM	18.1 µM	29.5 µM	37.1 µM	26.1 µM	20.5 µM	30.6 µM	14.7 µM	28.5 µM		21.9 µM				
COc1cc(C2S/C(=C/c3ccccc3)C(=O)N2c2cc(Cl)ccc2Cl)cc(OC)c1OC (configuration not stated)	> 100 µM	> 100 µM	42.9 µM	> 100 µM	> 100 µM	53.1 µM	> 100 µM	41.3 µM	> 100 µM	> 100 µM	> 100 µM	> 100 µM		> 100 µM	> 100 µM	> 100 µM				
O[C@@]1(c2cccs2)c2cccc(Cl)c2[C@](O)(c2cccs2)c2cccc(Cl)c21	74.2 µM	42.4 µM	> 100 µM	71 µM	61.7 µM	66.8 µM	37.2 µM	32.5 µM	44.9 µM	37.2 µM	44.8 µM	31.3 µM	40.9 µM	48.1 µM	38.2 µM					
CCC(CC)C(=O)OC[n+]1ccc(-c2c(COC(=O)NC(C)C)c(COC(=O)NC(C)C)c3n2CCC3)cc1	> 100 µM		> 100 µM	> 100 µM	> 100 µM		> 100 µM	> 100 µM	> 100 µM		> 100 µM	> 100 µM	> 100 µM	> 100 µM	> 100 µM	> 100 µM				
COc1ccc(N)c(C(O)CCNC(C)=O)c1 (configuration not stated)	> 100 µM	> 100 µM	> 100 µM	> 100 µM	> 100 µM	> 100 µM	> 100 µM	> 100 µM	> 100 µM		> 100 µM	> 100 µM	> 100 µM	> 100 µM	> 100 µM	> 100 µM				
CCC(CS(=O)(=O)O)[N+](=O)[O-] (configuration not stated)	> 100 µM	> 100 µM	> 100 µM	> 100 µM	> 100 µM	> 100 µM	> 100 µM	> 100 µM	> 100 µM	> 100 µM	> 100 µM	> 100 µM	> 100 µM	> 100 µM	> 100 µM					
COc1ccc(/C(CCl)=C(\Nc2ccccc2)c2ccc(OC)c(OC)c2)cc1OC	> 100 µM	> 100 µM	> 100 µM	> 100 µM	> 100 µM	> 100 µM	> 100 µM	> 100 µM	> 100 µM	> 100 µM	> 100 µM	> 100 µM	> 100 µM	> 100 µM	> 100 µM					
N#Cc1nc(CSCc2ccccc2)oc1N	> 100 µM	> 100 µM	> 100 µM	> 100 µM	> 100 µM	> 100 µM	> 100 µM	> 100 µM		> 100 µM	> 100 µM	> 100 µM	> 100 µM	> 100 µM	> 100 µM	> 100 µM				
COC(=O)c1ccccc1/C=C1/Cc2cccc(C)c2C1=O	> 100 µM		> 100 µM	> 100 µM	> 100 µM	> 100 µM	> 100 µM	> 100 µM	> 100 µM	> 100 µM	> 100 µM	> 100 µM	> 100 µM	> 100 µM	> 100 µM	> 100 µM				

Structure (SMILES)	TGI [1]	TGI [2]	TGI [3]	TGI [4]	TGI [5]	TGI [6]	TGI [7]	TGI [8]	TGI [9]	TGI [10]	TGI [11]	TGI [12]	TGI [13]	TGI [14]	TGI [15]	TGI [16]	GI50 [2]	GI50 [6]	GI50 [9]	GI50 [15]
O=C(c1ccco1)C1CC(c2ccc3ccccc3c2O)=NN1 (configuration not stated)	> 100 µM	> 100 µM	> 100 µM	> 100 µM	> 100 µM	> 100 µM	> 100 µM	> 100 µM		> 100 µM	> 100 µM	> 100 µM	> 100 µM	> 100 µM	> 100 µM	> 100 µM				
COc1ccc(OC)c([N+](=O)[O-])c1-c1nc2sccn2c1/C=N/N=C(N)N	> 100 µM	93.2 µM	> 100 µM	> 100 µM	> 100 µM	> 100 µM	54.2 µM	> 100 µM	> 100 µM	> 100 µM	> 100 µM	> 100 µM		> 100 µM	> 100 µM	> 100 µM				
CCC[C@H](O)[C@@H](CNc1cc(NC(C)=O)nc(NC(C)=O)n1)N(Cc1ccccc1)Cc1ccccc1	63.4 µM	> 100 µM		> 100 µM	> 100 µM		25.8 µM	38.6 µM	45.3 µM	> 100 µM	> 100 µM	25.5 µM	> 100 µM	35.9 µM		> 100 µM				
CC(C)(C)OC(=O)NC1CC=CCC1NC(=O)OC(C)(C)C (configuration not stated)	> 100 µM	> 100 µM	> 100 µM	> 100 µM	> 100 µM	> 100 µM	> 100 µM	> 100 µM		> 100 µM	> 100 µM	> 100 µM	> 100 µM	> 100 µM	> 100 µM	> 100 µM				
Nc1ccc(-c2ncc3cc(-c4cccc(-c5cc6cnc(-c7ccc(N)cc7)nc6c6ccccc56)c4)c4ccccc4c3n2)cc1	> 100 µM	> 100 µM	> 100 µM	> 100 µM	> 100 µM	> 100 µM	> 100 µM	> 100 µM	> 100 µM		> 100 µM	> 100 µM		> 100 µM	> 100 µM	> 100 µM				
c1cc(-c2csc(-c3ccsc3)c2)cs1	> 100 µM		> 100 µM	> 100 µM	> 100 µM	> 100 µM	48.6 µM	> 100 µM	> 100 µM		> 100 µM	> 100 µM	> 100 µM	> 100 µM	> 100 µM	> 100 µM				
CC1CC(=O)Nc2cc(Cl)ccc2N1C(=O)C1CC1 (configuration not stated)	> 100 µM	> 100 µM	> 100 µM	> 100 µM	> 100 µM	> 100 µM	> 100 µM	> 100 µM	> 100 µM	> 100 µM	> 100 µM	> 100 µM	> 100 µM	> 100 µM	> 100 µM					
CSc1ccccc1P(c1ccccc1SC)c1ccccc1SC	> 100 µM	> 100 µM	> 100 µM	> 100 µM	> 100 µM	> 100 µM	> 100 µM	> 100 µM	> 100 µM	> 100 µM	> 100 µM	> 100 µM	> 100 µM	> 100 µM		> 100 µM				
Cc1cccc(-n2c(C)nc3ccc(NC4OC(CO)C(O)C(O)C4O)cc3c2=O)c1 (configuration not stated)		> 100 µM		> 100 µM	> 100 µM	> 100 µM	> 100 µM	> 100 µM	> 100 µM	> 100 µM	> 100 µM	> 100 µM	> 100 µM	> 100 µM	> 100 µM	> 100 µM				
COC(=O)/C=C/c1cnc2c(c1)oc(=O)n2CCc1ccccn1	> 100 µM	> 100 µM	> 100 µM	> 100 µM	> 100 µM	> 100 µM	> 100 µM	> 100 µM	> 100 µM	> 100 µM	> 100 µM	> 100 µM	> 100 µM	> 100 µM		> 100 µM				
CCOC(=O)N1CCN(c2c(C)nc(C)[nH]c2=O)CC1	> 100 µM		> 100 µM	> 100 µM	> 100 µM	> 100 µM	> 100 µM	> 100 µM	> 100 µM	> 100 µM	> 100 µM	> 100 µM	> 100 µM	> 100 µM	> 100 µM	> 100 µM				
CCC(C)C(C(=O)N/N=C1/SCC(=O)N1C)C(=O)N/N=C1/SCC(=O)N1C (configuration not stated)	> 100 µM	> 100 µM	> 100 µM	> 100 µM	> 100 µM	> 100 µM	> 100 µM	> 100 µM	> 100 µM	> 100 µM	> 100 µM	> 100 µM	> 100 µM	> 100 µM	> 100 µM					
CN(C)/C(N)=N/C(N)=Nc1cccc(Cl)c1	> 100 µM	> 100 µM	> 100 µM	> 100 µM	> 100 µM	> 100 µM	> 100 µM	> 100 µM	> 100 µM	> 100 µM	> 100 µM	> 100 µM	> 100 µM	92.5 µM		> 100 µM				
Nc1nc(N)c(C2=CCN(Cc3ccccc3)CC2)c(=O)[nH]1	> 100 µM	> 100 µM	> 100 µM	> 100 µM	> 100 µM	> 100 µM	> 100 µM	> 100 µM	> 100 µM	> 100 µM	> 100 µM	> 100 µM	> 100 µM	> 100 µM	> 100 µM					
Cn1c(NN)nc(-c2ccc([N+](=O)[O-])cc2)c(C#N)c1=O	28.2 µM	41.3 µM		28.4 µM	42.4 µM	31.1 µM	31.9 µM	27.2 µM	44.1 µM	29.7 µM	25.2 µM	29.9 µM	30.8 µM	25.5 µM	28 µM	43.8 µM				
